In PubChem BioAssay AID248 (DTP/NCI, 2004) one finds T/C data, which are given here for 15 compounds.

The structures appear in SMILES notation. Where “and” joins values, the source holds several entries; their conditions need not be identical. Identical values can stand only once. Inconclusive results and toxic doses are left out.

In this experiment the test system is L1210 leukemia ip in BDF1 mice, survival T/C. The experiment can be described thus: NCI In Vivo Anticancer Drug Screen. Data for tumor model L1210 Leukemia (intraperitoneal) in B6D2F1 (BDF1) mice. The settings on record: endpoint: mean survival time, higher = longer survival. The gist of the method: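 Transplantable tumor model; survival measured in treated vs vehicle control mice. Value = treated/control.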

Setting [1] is: dose: 100.0 mg/kg/injection, schedule: Q04DX003 (ip), vehicle: saline.
Setting [2] is: dose: 100.0 mg/kg/injection, schedule: Q01DX001 (ip), vehicle: Klucel (hydroxypropylcellulose) (HPC).
Where [3] appears, read: dose: 200.0 mg/kg/injection, schedule: Q01DX001 (ip), vehicle: Klucel (hydroxypropylcellulose) (HPC).
[4] abbreviates: dose: 400.0 mg/kg/injection, schedule: Q01DX001 (ip), vehicle: Klucel (hydroxypropylcellulose) (HPC).
Setting [5] is: dose: 100.0 mg/kg/injection, schedule: Q01DX009 (ip), vehicle: saline with Tween-80.
[6] abbreviates: dose: 200.0 mg/kg/injection, schedule: Q01DX009 (ip), vehicle: saline with Tween-80.
[7] abbreviates: dose: 400.0 mg/kg/injection, schedule: Q01DX009 (ip), vehicle: saline with Tween-80.
Setting [8] is: dose: 50.0 mg/kg/injection, schedule: Q01DX001 (ip), vehicle: carboxymethylcellulose (CMC).
[9] abbreviates: dose: 100.0 mg/kg/injection, schedule: Q01DX001 (ip), vehicle: carboxymethylcellulose (CMC).
[10] abbreviates: dose: 200.0 mg/kg/injection, schedule: Q01DX001 (ip), vehicle: carboxymethylcellulose (CMC).
Setting [11] is: dose: 400.0 mg/kg/injection, schedule: Q01DX001 (ip), vehicle: carboxymethylcellulose (CMC).
[12] abbreviates: dose: 100.0 mg/kg/injection, schedule: Q04DX003 (ip), vehicle: saline with Tween-80.
Setting [13] is: dose: 200.0 mg/kg/injection, schedule: Q04DX003 (ip), vehicle: saline with Tween-80.

For `Cc1cc([N+](=O)[O-])cc([N+](=O)[O-])c1OC(=O)c1ccc(N=C(N)N)cc1`, the T/C is 103 % of control (dose: 25.0 mg/kg/injection, schedule: Q04DX003 (ip), vehicle: saline); 102 % of control (dose: 50.0 mg/kg/injection, schedule: Q01DX009 (ip), vehicle: saline); 97 % of control (dose: 50.0 mg/kg/injection, schedule: Q04DX003 (ip), vehicle: saline); 94 % of control and 91 % of control (dose: 100.0 mg/kg/injection, schedule: Q01DX009 (ip), vehicle: saline); 96 % of control and 92 % of control under setting [1].

Consider `N=c1ccn(C2OC(CO)C(O)C2O)c(=O)n1O` (stereo not given), for which the T/C runs as follows: (dose: 5.0 mg/kg/injection, schedule: Q01DX009 (ip), vehicle: saline) 123 % of control; (dose: 10.0 mg/kg/injection, schedule: Q01DX009 (ip), vehicle: saline) 100 % of control; (dose: 100.0 mg/kg/injection, schedule: Q01DX001 (ip), vehicle: saline) 105 % of control; (dose: 200.0 mg/kg/injection, schedule: Q01DX001 (ip), vehicle: saline) 108 % of control; (dose: 400.0 mg/kg/injection, schedule: Q01DX001 (ip), vehicle: saline) 103 % of control and 105 % of control; (dose: 400.0 mg/kg/injection, schedule: Q01DX009 (ip), vehicle: saline) 167 % of control. In addition, the T/C was 105 % of control (dose: 600.0 mg/kg/injection, schedule: Q01DX001 (ip), vehicle: saline); 94 % of control (dose: 600.0 mg/kg/injection, schedule: Q01DX009 (ip), vehicle: saline); 110 % of control (dose: 800.0 mg/kg/injection, schedule: Q01DX001 (ip), vehicle: saline); 94 % of control (dose: 800.0 mg/kg/injection, schedule: Q01DX009 (ip), vehicle: saline).

As for `O=[N+]([O-])C1(Br)c2ccccc2-c2nc3ccccc3cc21` (stereo not given), the T/C by setting is: under setting [2], 94 % of control; under setting [3], 97 % of control; under setting [4], 94 % of control.

Take `c1ccc2c(c1)Nc1ccncc1S2`: the T/C by setting is: under setting [5], 95 % of control; under setting [6], 90 % of control; under setting [7], 101 % of control.

On to `Cc1ccccc1N(C)C(=S)c1ccc(Cl)cc1`, for which the T/C is, setting by setting: under setting [2], 105 % of control; (dose: 100.0 mg/kg/injection, schedule: Q04DX003 (ip), vehicle: Klucel (hydroxypropylcellulose) (HPC)) 92 % of control; under setting [3], 102 % of control; (dose: 200.0 mg/kg/injection, schedule: Q04DX003 (ip), vehicle: Klucel (hydroxypropylcellulose) (HPC)) 94 % of control; under setting [4], 110 % of control; (dose: 400.0 mg/kg/injection, schedule: Q04DX003 (ip), vehicle: Klucel (hydroxypropylcellulose) (HPC)) 96 % of control.

As for `CCN(CC)CCCC(C)Nc1cccc2c1C(=O)c1cccc(NC(C)CCCN(CC)CC)c1C2=O` (stereo not given), the T/C reads like this: (dose: 12.5 mg/kg/injection, schedule: Q01DX009 (ip), vehicle: saline) 107 % of control; (dose: 25.0 mg/kg/injection, schedule: Q01DX009 (ip), vehicle: saline) 96 % of control and 118 % of control; (dose: 25.0 mg/kg/injection, schedule: Q04DX002 (ip), vehicle: saline) 98 % of control and 95 % of control; (dose: 50.0 mg/kg/injection, schedule: Q04DX002 (ip), vehicle: saline) 92 % of control and 98 % of control; (dose: 100.0 mg/kg/injection, schedule: Q04DX002 (ip), vehicle: saline) 102 % of control and 92 % of control.

Take `COc1ccccc1/C=N\N/C(N)=N\N=C\c1ccccc1OC`: the T/C reads like this: (dose: 15.0 mg/kg/injection, schedule: Q01DX Z (ip), vehicle: carboxymethylcellulose (CMC)) 98 % of control; (dose: 30.0 mg/kg/injection, schedule: Q01DX Z (ip), vehicle: carboxymethylcellulose (CMC)) 103 % of control; (dose: 60.0 mg/kg/injection, schedule: Q01DX Z (ip), vehicle: carboxymethylcellulose (CMC)) 103 % of control and 117 % of control; (dose: 120.0 mg/kg/injection, schedule: Q01DX Z (ip), vehicle: carboxymethylcellulose (CMC)) 101 % of control and 117 % of control; (dose: 240.0 mg/kg/injection, schedule: Q01DX Z (ip), vehicle: carboxymethylcellulose (CMC)) 108 % of control; (dose: 240.0 mg/kg/injection, schedule: Q01DX Z (oral), vehicle: carboxymethylcellulose (CMC)) 97 % of control. Besides, the T/C runs as follows: (dose: 480.0 mg/kg/injection, schedule: Q01DX Z (ip), vehicle: carboxymethylcellulose (CMC)) 121 % of control; (dose: 480.0 mg/kg/injection, schedule: Q01DX Z (oral), vehicle: carboxymethylcellulose (CMC)) 105 % of control; (dose: 960.0 mg/kg/injection, schedule: Q01DX Z (oral), vehicle: carboxymethylcellulose (CMC)) 95 % of control; (dose: 1920.0 mg/kg/injection, schedule: Q01DX Z (oral), vehicle: carboxymethylcellulose (CMC)) 105 % of control.

Turning to `NC(CCC(=O)NC(=O)OCc1ccccc1)C(=O)O` (stereo not given), the T/C under setting [5] is 102 % of control, the T/C under setting [6] is 100 % of control and the T/C under setting [7] was 97 % of control.

On to `Cc1ccccc1OP(=O)(Oc1ccccc1C)Oc1ccccc1C`, for which the T/C runs as follows: under setting [8], 104 % of control; under setting [9], 101 % of control; under setting [10], 95 % of control; under setting [11], 93 % of control.

Turning to `O=C(O)CCC(=O)Oc1ccccc1`, the T/C (dose: 100.0 mg/kg/injection, schedule: Q04DX003 (ip), vehicle: other) was 92 % of control and the T/C (dose: 200.0 mg/kg/injection, schedule: Q04DX003 (ip), vehicle: other) is 106 % of control.

For the compound `O=S(O)c1ncnc2nc[nH]c12`, the T/C is, setting by setting: under setting [1], 101 % of control; (dose: 200.0 mg/kg/injection, schedule: Q04DX003 (ip), vehicle: saline) 106 % of control; (dose: 400.0 mg/kg/injection, schedule: Q04DX003 (ip), vehicle: saline) 95 % of control.

Regarding `CC(C)(C)C1CCC(C(=O)O)CC1` (stereo not given), the T/C is, setting by setting: (dose: 50.0 mg/kg/injection, schedule: Q01DX009 (ip), vehicle: gum acacia) 102 % of control; (dose: 100.0 mg/kg/injection, schedule: Q01DX009 (ip), vehicle: gum acacia) 103 % of control; under setting [5], 95 % of control and 97 % of control; (dose: 100.0 mg/kg/injection, schedule: Q04DX002 (ip), vehicle: gum acacia) 100 % of control; (dose: 100.0 mg/kg/injection, schedule: Q04DX003 (ip), vehicle: gum acacia) 106 % of control; under setting [12], 102 % of control and 89 % of control. Also, the T/C (dose: 200.0 mg/kg/injection, schedule: Q01DX009 (ip), vehicle: gum acacia) is 105 % of control; the T/C under setting [6] is 94 % of control and 97 % of control; the T/C (dose: 200.0 mg/kg/injection, schedule: Q04DX002 (ip), vehicle: gum acacia) was 110 % of control; the T/C (dose: 200.0 mg/kg/injection, schedule: Q04DX003 (ip), vehicle: gum acacia) was 106 % of control; the T/C under setting [13] is 100 % of control and 94 % of control; the T/C under setting [7] is 97 % of control. Besides, the T/C was 110 % of control (dose: 400.0 mg/kg/injection, schedule: Q04DX002 (ip), vehicle: gum acacia) and 89 % of control (dose: 400.0 mg/kg/injection, schedule: Q04DX003 (ip), vehicle: saline with Tween-80).

Take `COc1ccc(OC)c(/C=C/c2ccnc3ccccc23)c1`: the T/C under setting [8] is 93 % of control, the T/C under setting [9] was 96 % of control, the T/C under setting [10] is 91 % of control and the T/C under setting [11] was 87 % of control.

As for `CCC(=S)Nc1ccc(Cl)cc1`, the T/C reads like this: (dose: 25.0 mg/kg/injection, schedule: Q01DX009 (ip), vehicle: saline with Tween-80) 103 % of control; (dose: 50.0 mg/kg/injection, schedule: Q01DX009 (ip), vehicle: saline with Tween-80) 105 % of control; under setting [5], 112 % of control; under setting [12], 91 % of control; under setting [13], 110 % of control.

For `COC(=O)NS(=O)(=O)/C=C/N1CCCC1=O`, the T/C runs as follows: (dose: 75.0 mg/kg/injection, schedule: Q04DX003 (ip), vehicle: Klucel (hydroxypropylcellulose) (HPC)) 96 % of control; (dose: 150.0 mg/kg/injection, schedule: Q04DX003 (ip), vehicle: Klucel (hydroxypropylcellulose) (HPC)) 100 % of control; (dose: 300.0 mg/kg/injection, schedule: Q04DX003 (ip), vehicle: Klucel (hydroxypropylcellulose) (HPC)) 100 % of control.
